Results on three compounds are retold here after ChEMBL document CHEMBL4680201, “Design, synthesis, and pharmacological evaluation of 4- or 6-phenyl-pyrimidine derivatives as novel and selective Janus kinase 3 inhibitors” (Eur J Med Chem, 2020).

Active and inactive are the calls of the source. The rule behind the calls is not given here.

The target in data set [1] is Tyrosine-protein kinase JAK1 (Homo sapiens, UniProt P23458). Nature of the data set: Inhibition of recombinant human GST-tagged JAK1 cytoplasmic domain (866 to 1154 residues) expressed in baculovirus expression system using TK-substrate-biotin preincubated for 5 mins followed by substrate addition and measured after 30 mins by HTRF assay.
The nature of data set [2]: Cytotoxicity against resting mouse T cells assessed as reduction in cell viability at 10 uM measured after 72 hrs by MTS assay. The format is cell-based.
Data set [3] deals with RAW264.7. Nature of the data set: Cytotoxicity against mouse RAW264.7 cells assessed as reduction in cell viability at 10 uM measured after 72 hrs by MTS assay. Type of data set: cell-based. As to conditions: raw264.7, 72 h. For orientation: Tetrazolium dyes change colour on reduction, which living cells bring about.
In data set [4] the target is T1, Tyrosine-protein kinase JAK2 (Homo sapiens, UniProt O60674). The format is ADME.
Data set [5] in a line: Cytotoxicity against IL-4-treated mouse T cells assessed as reduction in cell viability at 10 uM measured after 72 hrs by MTS assay. Type of data set: cell-based.
Data set [6] concerns the target T2, Tyrosine-protein kinase JAK3 (Mus musculus) (UniProt Q62137).
T2 sequence (whole entry): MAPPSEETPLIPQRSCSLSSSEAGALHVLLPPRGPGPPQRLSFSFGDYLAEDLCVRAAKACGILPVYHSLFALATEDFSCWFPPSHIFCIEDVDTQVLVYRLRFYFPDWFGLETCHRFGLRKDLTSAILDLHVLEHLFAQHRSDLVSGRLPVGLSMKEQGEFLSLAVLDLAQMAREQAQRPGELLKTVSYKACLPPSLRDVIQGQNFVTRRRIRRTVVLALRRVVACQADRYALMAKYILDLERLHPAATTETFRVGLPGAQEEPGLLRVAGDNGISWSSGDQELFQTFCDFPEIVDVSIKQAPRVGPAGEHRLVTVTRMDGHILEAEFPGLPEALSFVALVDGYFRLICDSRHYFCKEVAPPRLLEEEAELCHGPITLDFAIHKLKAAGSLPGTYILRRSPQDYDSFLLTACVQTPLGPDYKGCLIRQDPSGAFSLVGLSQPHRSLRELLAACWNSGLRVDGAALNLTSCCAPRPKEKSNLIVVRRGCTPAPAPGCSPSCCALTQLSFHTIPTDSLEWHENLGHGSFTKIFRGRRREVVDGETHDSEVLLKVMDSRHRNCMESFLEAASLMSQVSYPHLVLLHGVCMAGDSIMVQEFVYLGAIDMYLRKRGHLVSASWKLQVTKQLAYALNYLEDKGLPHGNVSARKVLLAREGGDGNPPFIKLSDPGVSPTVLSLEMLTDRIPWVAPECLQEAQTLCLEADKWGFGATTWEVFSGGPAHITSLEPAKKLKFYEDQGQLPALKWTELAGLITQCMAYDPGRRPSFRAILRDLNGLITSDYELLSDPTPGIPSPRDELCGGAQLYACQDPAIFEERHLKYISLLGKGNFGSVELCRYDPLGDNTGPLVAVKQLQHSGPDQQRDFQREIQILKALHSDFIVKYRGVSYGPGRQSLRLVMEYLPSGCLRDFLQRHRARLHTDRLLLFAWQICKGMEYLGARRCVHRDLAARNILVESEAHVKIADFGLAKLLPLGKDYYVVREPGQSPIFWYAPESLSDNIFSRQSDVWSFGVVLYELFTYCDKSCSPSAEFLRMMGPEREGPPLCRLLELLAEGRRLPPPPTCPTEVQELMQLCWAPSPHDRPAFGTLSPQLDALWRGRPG
Nature of the data set: Inhibition of JAK3 in anti-CD3/-CD28 coated mouse T cells assessed as reduction in IL15-induced STAT5 phosphorylation at 10 uM preincubated for 1 hr followed by […] and measured after 30 mins by Western blot analysis. As to conditions: T cell.

For data set [7], the target named is T2, Tyrosine-protein kinase JAK3 (Mus musculus). Nature of the data set: Inhibition of JAK3 in anti-CD3/-CD28 coated mouse T cells assessed as reduction in IL2-induced STAT5 phosphorylation at 10 uM preincubated for 1 hr followed by IL2 stimulation and measured after 30 mins by Western blot analysis. As to conditions: T cell. A general note: A western blot detects proteins with antibodies after separation by electrophoresis.

The target of data set [8] is T3, Tyrosine-protein kinase JAK3 (Homo sapiens, UniProt P52333).
T3 sequence (P52333 whole entry): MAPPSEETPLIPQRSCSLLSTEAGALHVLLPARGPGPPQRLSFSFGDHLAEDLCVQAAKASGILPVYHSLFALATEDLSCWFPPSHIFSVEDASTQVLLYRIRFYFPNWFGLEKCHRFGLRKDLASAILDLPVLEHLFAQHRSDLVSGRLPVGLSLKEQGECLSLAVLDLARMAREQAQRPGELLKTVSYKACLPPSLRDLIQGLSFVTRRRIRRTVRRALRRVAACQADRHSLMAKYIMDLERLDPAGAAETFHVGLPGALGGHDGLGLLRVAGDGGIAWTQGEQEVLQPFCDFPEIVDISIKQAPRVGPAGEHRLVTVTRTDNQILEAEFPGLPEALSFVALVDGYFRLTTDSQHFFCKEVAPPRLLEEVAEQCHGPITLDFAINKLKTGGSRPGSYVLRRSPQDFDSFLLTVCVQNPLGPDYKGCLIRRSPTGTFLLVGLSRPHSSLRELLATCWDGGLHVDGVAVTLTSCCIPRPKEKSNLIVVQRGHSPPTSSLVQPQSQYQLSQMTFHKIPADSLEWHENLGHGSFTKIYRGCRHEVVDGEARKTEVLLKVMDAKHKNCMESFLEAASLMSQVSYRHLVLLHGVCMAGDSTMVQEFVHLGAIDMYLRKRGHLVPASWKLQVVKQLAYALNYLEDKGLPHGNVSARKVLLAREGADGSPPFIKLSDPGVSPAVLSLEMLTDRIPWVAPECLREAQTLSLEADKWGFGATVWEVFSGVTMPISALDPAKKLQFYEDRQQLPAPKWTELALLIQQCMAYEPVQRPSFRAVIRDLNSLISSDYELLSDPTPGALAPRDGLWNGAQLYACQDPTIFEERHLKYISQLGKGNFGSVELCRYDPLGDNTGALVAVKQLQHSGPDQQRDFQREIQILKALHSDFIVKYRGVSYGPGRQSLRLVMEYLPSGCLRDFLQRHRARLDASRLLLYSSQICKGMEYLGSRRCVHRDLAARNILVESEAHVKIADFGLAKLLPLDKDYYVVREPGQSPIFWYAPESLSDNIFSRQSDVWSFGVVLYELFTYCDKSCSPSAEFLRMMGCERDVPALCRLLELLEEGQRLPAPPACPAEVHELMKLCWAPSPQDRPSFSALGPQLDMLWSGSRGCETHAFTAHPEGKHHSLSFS

For data set [9], the target named is Non-receptor tyrosine-protein kinase TYK2 (Homo sapiens, UniProt P29597). Nature of the data set: Inhibition of recombinant human N-terminal GST-tagged TYK2 cytoplasmic domain (833 to 1187 residues) expressed in baculovirus expression system using TK-substrate-biotin preincubated for 5 mins followed by substrate addition and measured after 30 mins by HTRF assay. (In general: TR-FRET usually uses a lanthanide donor and a delayed reading to cut background.)

The species named for data set [10] is Homo sapiens. Nature of the data set: Selectivity ratio of IC50 for inhibition of recombinant human C-terminal His6-tagged JAK2 (808 to end residues) expressed in baculovirus infected Sf21 insect cells to IC50 for inhibition of recombinant human GST-tagged JAK3 catalytic domain (811 to 1103 residues) expressed in Sf9 insect cells.
For data set [11], the species on record is Homo sapiens. Nature of the data set: Selectivity ratio of IC50 for inhibition of recombinant human GST-tagged JAK1 catalytic domain (845 to 1142 residues) expressed in Sf9 insect cells to IC50 for inhibition of recombinant human GST-tagged JAK3 catalytic domain (811 to 1103 residues) expressed in Sf9 insect cells.
Data set [12] concerns the target T1, Tyrosine-protein kinase JAK2. Nature of the data set: Inhibition of recombinant human C-terminal His6-tagged JAK2 (808 to end residues) expressed in baculovirus infected Sf21 insect cells using Biotin-TYR1 (Biotin-(Ahx)-GAEEEIYAAFFA-COOH as substrate.

T1 sequence (O60674 whole entry): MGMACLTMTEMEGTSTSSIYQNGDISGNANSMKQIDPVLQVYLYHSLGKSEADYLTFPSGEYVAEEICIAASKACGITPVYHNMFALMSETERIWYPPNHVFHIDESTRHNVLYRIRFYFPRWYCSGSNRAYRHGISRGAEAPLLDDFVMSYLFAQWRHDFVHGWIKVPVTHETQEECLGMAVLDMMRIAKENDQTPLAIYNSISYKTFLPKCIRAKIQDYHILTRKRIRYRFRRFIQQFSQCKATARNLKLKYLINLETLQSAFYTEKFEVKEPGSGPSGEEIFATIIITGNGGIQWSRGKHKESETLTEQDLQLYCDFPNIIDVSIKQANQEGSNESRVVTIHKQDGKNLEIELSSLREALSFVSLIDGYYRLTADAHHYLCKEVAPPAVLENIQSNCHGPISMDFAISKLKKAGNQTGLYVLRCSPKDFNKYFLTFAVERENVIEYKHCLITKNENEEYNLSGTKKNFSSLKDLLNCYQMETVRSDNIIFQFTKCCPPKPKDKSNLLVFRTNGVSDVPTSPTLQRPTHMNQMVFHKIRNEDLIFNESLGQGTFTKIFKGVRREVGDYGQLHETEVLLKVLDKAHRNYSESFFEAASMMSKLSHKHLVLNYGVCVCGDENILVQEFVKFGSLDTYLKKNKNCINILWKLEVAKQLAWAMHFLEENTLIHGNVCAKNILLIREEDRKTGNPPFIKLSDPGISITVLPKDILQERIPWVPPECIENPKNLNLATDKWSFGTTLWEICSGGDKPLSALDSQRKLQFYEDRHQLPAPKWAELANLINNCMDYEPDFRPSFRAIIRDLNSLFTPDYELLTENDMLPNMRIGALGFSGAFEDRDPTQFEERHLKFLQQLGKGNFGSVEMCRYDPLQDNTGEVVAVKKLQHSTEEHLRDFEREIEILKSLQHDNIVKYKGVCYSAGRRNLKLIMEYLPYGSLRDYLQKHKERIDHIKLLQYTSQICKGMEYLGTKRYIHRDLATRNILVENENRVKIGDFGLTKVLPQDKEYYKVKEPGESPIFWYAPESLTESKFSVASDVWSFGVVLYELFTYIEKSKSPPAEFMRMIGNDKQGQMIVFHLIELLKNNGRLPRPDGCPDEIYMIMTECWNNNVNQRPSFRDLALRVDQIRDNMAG
Sequence of Non-receptor tyrosine-protein kinase TYK2 (P29597 whole entry, the tested form may be a part): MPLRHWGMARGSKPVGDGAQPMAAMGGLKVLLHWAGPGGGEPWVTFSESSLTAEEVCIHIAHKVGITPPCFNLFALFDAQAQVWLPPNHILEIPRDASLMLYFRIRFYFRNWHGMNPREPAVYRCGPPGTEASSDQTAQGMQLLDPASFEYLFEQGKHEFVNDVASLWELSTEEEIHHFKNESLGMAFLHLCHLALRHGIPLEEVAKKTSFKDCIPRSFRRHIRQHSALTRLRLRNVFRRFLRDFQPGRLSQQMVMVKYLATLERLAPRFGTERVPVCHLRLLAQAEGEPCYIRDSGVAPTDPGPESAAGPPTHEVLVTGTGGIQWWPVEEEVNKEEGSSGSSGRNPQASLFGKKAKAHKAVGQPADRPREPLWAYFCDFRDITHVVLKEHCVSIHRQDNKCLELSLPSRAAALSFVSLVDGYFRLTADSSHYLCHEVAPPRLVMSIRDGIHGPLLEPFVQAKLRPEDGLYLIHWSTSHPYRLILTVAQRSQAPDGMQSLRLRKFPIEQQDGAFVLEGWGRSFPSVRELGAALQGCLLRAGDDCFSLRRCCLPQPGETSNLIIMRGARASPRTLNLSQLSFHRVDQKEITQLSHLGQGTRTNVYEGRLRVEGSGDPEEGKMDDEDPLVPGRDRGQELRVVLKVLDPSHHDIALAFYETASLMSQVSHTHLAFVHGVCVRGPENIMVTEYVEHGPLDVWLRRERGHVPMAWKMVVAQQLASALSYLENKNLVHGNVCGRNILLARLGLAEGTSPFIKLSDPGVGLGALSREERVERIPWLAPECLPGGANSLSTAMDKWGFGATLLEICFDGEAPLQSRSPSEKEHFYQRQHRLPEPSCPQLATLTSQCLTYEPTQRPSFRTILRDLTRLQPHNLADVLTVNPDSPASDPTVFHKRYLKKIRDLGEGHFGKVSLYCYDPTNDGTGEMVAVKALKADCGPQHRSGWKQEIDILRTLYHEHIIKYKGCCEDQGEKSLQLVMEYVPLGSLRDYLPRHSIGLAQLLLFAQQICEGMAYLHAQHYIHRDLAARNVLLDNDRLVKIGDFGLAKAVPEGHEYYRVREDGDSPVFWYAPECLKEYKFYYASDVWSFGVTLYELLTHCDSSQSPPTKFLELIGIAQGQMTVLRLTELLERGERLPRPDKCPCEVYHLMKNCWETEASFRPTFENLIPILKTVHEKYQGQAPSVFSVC
Sequence of Tyrosine-protein kinase JAK1 (P23458 whole entry, the tested form may be a part): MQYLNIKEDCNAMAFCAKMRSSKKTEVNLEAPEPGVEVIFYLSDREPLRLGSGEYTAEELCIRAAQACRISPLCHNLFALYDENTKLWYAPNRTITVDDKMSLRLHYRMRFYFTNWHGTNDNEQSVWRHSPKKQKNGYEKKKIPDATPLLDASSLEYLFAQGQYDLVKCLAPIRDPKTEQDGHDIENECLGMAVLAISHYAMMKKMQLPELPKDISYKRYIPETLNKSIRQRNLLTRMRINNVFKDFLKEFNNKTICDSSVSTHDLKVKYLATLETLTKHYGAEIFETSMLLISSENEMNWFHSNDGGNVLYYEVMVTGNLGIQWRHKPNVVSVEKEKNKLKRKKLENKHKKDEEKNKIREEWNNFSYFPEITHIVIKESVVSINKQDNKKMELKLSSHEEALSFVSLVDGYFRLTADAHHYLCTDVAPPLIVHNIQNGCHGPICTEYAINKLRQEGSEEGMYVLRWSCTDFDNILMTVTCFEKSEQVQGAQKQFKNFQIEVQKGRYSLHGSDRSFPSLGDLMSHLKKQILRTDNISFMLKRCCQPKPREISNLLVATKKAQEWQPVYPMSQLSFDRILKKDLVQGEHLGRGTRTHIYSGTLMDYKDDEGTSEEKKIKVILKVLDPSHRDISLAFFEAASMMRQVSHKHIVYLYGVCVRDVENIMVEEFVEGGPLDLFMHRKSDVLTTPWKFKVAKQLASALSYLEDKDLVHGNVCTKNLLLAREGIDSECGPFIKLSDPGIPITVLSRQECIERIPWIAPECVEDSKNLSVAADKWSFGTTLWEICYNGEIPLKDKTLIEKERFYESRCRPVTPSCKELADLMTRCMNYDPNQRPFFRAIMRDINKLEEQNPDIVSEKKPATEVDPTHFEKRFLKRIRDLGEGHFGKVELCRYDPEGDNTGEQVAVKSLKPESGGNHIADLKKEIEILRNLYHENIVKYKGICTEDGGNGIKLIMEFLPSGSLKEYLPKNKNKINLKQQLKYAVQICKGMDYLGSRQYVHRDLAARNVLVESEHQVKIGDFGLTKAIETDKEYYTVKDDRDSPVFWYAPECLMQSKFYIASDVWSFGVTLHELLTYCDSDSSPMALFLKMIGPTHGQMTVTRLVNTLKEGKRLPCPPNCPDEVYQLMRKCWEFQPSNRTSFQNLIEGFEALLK

For `C/C=C/C(=O)Nc1ccc(-c2ccnc(Nc3ccc(N4CCOCC4)cc3)n2)cc1`, the IC50 was 1.15 µM in data set [1], 1.41 µM in [4], 0.0061 µM in data set [8] and over 3 µM in data set [9]. Moreover, the Activity result in data set [2], in [3] and in [5] was “Non-Toxic” throughout. Besides, the inhibition entry in [6] and in data set [7] was “Active” in each case.
As to `C=CC(=O)Nc1ccc(-c2ccnc(Nc3cnn(CCOC)c3)n2)cc1`, the IC50 in [1] was 1.56 µM; in data set [4], 1.08 µM; in [8], 0.0091 µM; in data set [9], over 3 µM. The Activity result in data set [2], in [3] and in data set [5] was “Non-Toxic” each time. Besides, the inhibition result in data set [6] and in data set [7] was “Active” each time.
Regarding `CC[C@H]1CN(C(=O)NCC(F)(F)F)C[C@H]1C1C=NC2=CN=C3NC=CC3N21` (stereo partly specified), the Ratio IC50 came to 19 in data set [10] and 49 in data set [11]. Moreover, the IC50 in data set [12] is 0.12 µM.

By IC50 is commonly meant the concentration at which inhibition is half-maximal.
